Measurements: US20260102383A1, “LPAR1 Inhibitors” (AbbVie Inc., priority 2024, published 2026)

Target: T1, human LPAR1 (Homo sapiens, UniProt Q92633)
T1 construct: host or cells: TangoEDG2-bla U2OS cells
Test: Arrestin assay (Arrestin Reporter EDG2-bla U2OS), inhibition of LPA-stimulated signal
Assay type: cell-based
Settings: TangoEDG2-bla U2OS cells expressing human LPAR1; 0.25 μM LPA; read-out: Arrestin Reporter EDG2-bla U2OS Human Merged IC50
Procedure, shortened: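 TangoEDG2-bla U2OS cells (1×10^4/well, plated 18-20 h) were preincubated 1 h at 37 °C with compound (12-point, 3-fold, 10 μM to 0.00006 μM), then stimulated 3 h with 0.25 μM LPA final. LiveBLAzer FRET B/G 460/530 nm emission ratio gave % inhibition; IC50 from 4-parameter variable-slope fit.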

T1 sequence (Q92633 whole entry): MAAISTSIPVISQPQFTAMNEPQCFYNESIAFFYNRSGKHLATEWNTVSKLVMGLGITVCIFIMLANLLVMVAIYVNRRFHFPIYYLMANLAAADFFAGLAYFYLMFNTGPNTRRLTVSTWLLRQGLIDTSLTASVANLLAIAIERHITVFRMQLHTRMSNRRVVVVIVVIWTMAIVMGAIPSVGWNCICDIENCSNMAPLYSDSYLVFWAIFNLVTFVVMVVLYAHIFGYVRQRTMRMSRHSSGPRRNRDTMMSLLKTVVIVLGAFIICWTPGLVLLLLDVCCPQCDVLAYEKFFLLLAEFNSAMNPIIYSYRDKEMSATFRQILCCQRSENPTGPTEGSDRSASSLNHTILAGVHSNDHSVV

IC50 [nM]	SMILES
64.8	CC(C)c1ccnn1C1(C(=O)Nc2ccc(Cl)cc2OC(F)F)CCN(C[C@](C)(O)C(=O)O)CC1 [Compound 236, (2S)-3-[4-[[4-chloro-2-(difluoromethoxy)phenyl]carbamoyl]-4-(5-isopropylpyrazol-1-yl)-1-piperidyl]-2-hydroxy-2-methyl-propanoic acid]
37.9	COCC[C@@H](CN1CCC(C(=O)Nc2ccc(Cl)cc2OC(F)F)(n2ncc(F)c2C(C)C)CC1)C(=O)O [Compound 190, (2S)-2-[[4-[[4-chloro-2-(difluoromethoxy)phenyl]carbamoyl]-4-(4-fluoro-5-isopropyl-pyrazol-1-yl)-1-piperidyl]methyl]-4-methoxy-butanoic acid]
24.7	CC(C)c1ccnn1C1(C(=O)Nc2ccc(Cl)cc2OC(F)F)CCN(C[C@@]2(C(=O)O)CCOC2)CC1 [Compound 24, (3S)-3-[[4-[[4-chloro-2-(difluoromethoxy)phenyl]carbamoyl]-4-(5-isopropylpyrazol-1-yl)-1-piperidyl]methyl] tetrabydrofuran-3-carboxylic acid]
47.9	CC(C)c1ccnn1C1(C(=O)Nc2ccc(Cl)cc2OC(F)F)CCN(C[C@@H](C(=O)O)[C@@H](C)O)CC1 [Compound 222, (2R,3R)-2-[[4-[[4-chloro-2-(difluoromethoxy)phenyl]carbamoyl]-4-(5-isopropylpyrazol-1-yl)-1-piperidyl]methyl]-3-hydroxy-butanoic acid]
23.4	CC(C)c1ccnn1C1(C(=O)Nc2ccc(Cl)cc2OC(F)F)CCN(C(=N)[C@@H]2C[C@@H]2C(=O)O)CC1 [Compound 96, (1S,2R)-2-[4-[[4-chloro-2-(difluoromethoxy)phenyl]carbamoyl]-4-(5-isopropylpyrazol-1-yl)piperidine-1-carboximidoyl] cyclopropanecarboxylic acid]
6.73	CCOC(=O)N1CC[C@](CN2CCC(C(=O)Nc3ccc(Cl)cc3OC(F)F)(n3nccc3C(C)C)CC2)(C(=O)O)C1 [Compound 56, (3R)-3-[[4-[[4-chloro-2-(difluoromethoxy)phenyl]carbamoyl]-4-(5-isopropylpyrazol-1-yl)-1-piperidyl]methyl]-1-ethoxycarbonyl-pyrrolidine-3-carboxylic acid]
22.1	CC[C@@H](CN1CCC(C(=O)Nc2ccc(Cl)cc2OC(F)F)(n2nccc2C(C)C)CC1)C(=O)O [Compound 126, (2S)-2-[[4-[[4-chloro-2-(difluoromethoxy)phenyl]carbamoyl]-4-(5-isopropylpyrazol-1-yl)-1-piperidyl]methyl] butanoic acid]
94.9	CC(C)c1ccnn1C1(C(=O)Nc2ccc(Cl)cc2OC(F)F)CCN(CC2(C(=O)O)CCN(C(=O)O[C@H]3CCOC3)CC2)CC1 [Compound 109]
3.11	COc1cccc([C@H](CN2CCC(C(=O)Nc3ccc(Cl)cc3OC(F)F)(n3nccc3C(C)C)CC2)C(=O)O)c1 (single isomer, unassigned) [Compound 32]
28.4	CC(C)c1ccnn1C1(C(=O)Nc2ccc(Cl)cc2OC(F)F)CCN(C[C@H](C(=O)O)C2COCCOC2)CC1 [Compound 216, (2R)-3-[4-[[4-chloro-2-(difluoromethoxy)phenyl]carbamoyl]-4-(5-isopropylpyrazol-1-yl)-1-piperidyl]-2-(1,4-dioxepan-6-yl)propanoic acid]
16.6	CCOC[C@H](CN1CCC(C(=O)Nc2ccc(Cl)cc2OC(F)F)(n2nccc2C(C)C)CC1)C(=O)O [Compound 228, (2S)-2-[[4-[[4-chloro-2-(difluoromethoxy)phenyl]carbamoyl]-4-(5-isopropylpyrazol-1-yl)-1-piperidyl]methyl]-3-ethoxy-propanoic acid]
8.94	CC(C)c1ccnn1C1(C(=O)Nc2ccc(Cl)cc2OC(F)F)CCN(C[C@@H](COCC(F)(F)F)C(=O)O)CC1 [Compound 233, (2S)-2-[[4-[[4-chloro-2-(difluoromethoxy)phenyl]carbamoyl]-4-(5-isopropylpyrazol-1-yl)-1-piperidyl]methyl]-3-(2,2,2-trifluoroethoxy)propanoic acid]
49	C=C(CN1CCC(C(=O)Nc2ccc(Cl)cc2OC(F)F)(n2nccc2C(C)C)CC1)C(C)(C)C(=O)O [Compound 117, 3-[[4-[[4-chloro-2-(difluoromethoxy)phenyl]carbamoyl]-4-(5-isopropylpyrazol-1-yl)-1-piperidyl]methyl]-2,2-dimethyl-but-3-enoic acid]
326	CC(C)c1ccnn1C1(C(=O)Nc2ccc(Cl)cc2OC(F)F)CCN(C[C@H](C(=O)O)N2C[C@@H](C)O[C@H](C)C2)CC1 [Compound 159, (2R)-3-[4-[[4-chloro-2-(difluoromethoxy)phenyl]carbamoyl]-4-(5-isopropylpyrazol-1-yl)-1-piperidyl]-2-[(2R,6R)-2,6-dimethylmorpholin-4-yl]propanoic acid]
99.5	CC(C)c1ccnn1C1(C(=O)Nc2ccc(Cl)cc2OC(F)F)CCN(C[C@@H](C(=O)O)N2CCOCC2)CC1 (single isomer, unassigned) [Compound 150, (25)-3-[4-[[4-chloro-2-(difluoromethoxy)phenyl]carbamoyl]-4-(5-isopropylpyrazol-1-yl)-1-piperidyl]-2-morpholino-propanoic acid]
14.7	CC(C)c1ccnn1C1(C(=O)Nc2ccc(Cl)cc2OC(F)F)CCN(CC2(C(=O)O)CCOCC2)CC1 [Compound 3, 4-[[4-[[4-chloro-2-(difluoromethoxy)phenyl]carbamoyl]-4-(5-isopropylpyrazol-1-yl)-1-piperidyl]methyl]tetrahydropyran-4-carboxylic acid]
14.6	CC(C)c1ccnn1C1(C(=O)Nc2ccc(Cl)cc2OC(F)F)CCN(C[C@]2(C(=O)O)CCCO2)CC1 [Compound 21, (2S)-2-[[4-[[4-chloro-2-(difluoromethoxy)phenyl]carbamoyl]-4-(5-isopropylpyrazol-1-yl)-1-piperidyl]methyl] tetrabydrofuran-2-carboxylic acid]
45.7	CC(C)c1ccnn1C1(C(=O)Nc2ccc(Cl)cc2OC(F)F)CCN(C[C@@H](C)C(C)(C)C(=O)O)CC1 [Compound 130]
14	CC(C)c1c(Cl)cnn1C1(C(=O)Nc2ccc(Cl)cc2OC(F)F)CCN(C[C@@H](C(=O)O)C2CCOCC2)CC1 (single isomer, unassigned) [Compound 197]
120	CC(C)c1ccnn1C1(C(=O)Nc2ccc(Cl)cc2OC(F)F)CCN(C[C@H](C(=O)O)N2CCOC(C)(C)C2)CC1 [Compound 166]
129	CC(C)c1ccnn1C1(C(=O)Nc2ccc(Cl)cc2OC(F)F)CCN(CC(C(=O)O)N2CCOCC2)CC1 (centres unmarked) [Compound 116, 3-[4-[[4-chloro-2-(difluoromethoxy)phenyl]carbamoyl]-4-(5-isopropylpyrazol-1-yl)-1-piperidyl]-2-morpholino-propanoic acid]
129	CC(C)c1ccnn1C1(C(=O)Nc2ccc(Cl)cc2OC(F)F)CCN(CC2(C(=O)O)CCN(C(=O)C34CC(C#N)(C3)C4)CC2)CC1 [Compound 80, 4-[[4-[[4-chloro-2-(difluoromethoxy)phenyl]carbamoyl]-4-(5-isopropylpyrazol-1-yl)-1-piperidyl]methyl]-1-(3-cyanobicyclo[1.1.1]pentane-1-carbonyl)piperidine-4-carboxylic acid]
33.6	CC(C)c1c(F)cnn1C1(C(=O)Nc2ccc(Cl)cc2OC(F)F)CCN(C[C@@H](CO)C(=O)O)CC1 [Compound 209, (2S)-2-[[4-[[4-chloro-2-(difluoromethoxy)phenyl]carbamoyl]-4-(4-fluoro-5-isopropyl-pyrazol-1-yl)-1-piperidyl]methyl]-3-hydroxy-propanoic acid]
62.3	CC(C)c1ccnn1C1(C(=O)Nc2ccc(Cl)cc2OC(F)F)CCN(C[C@H](CN2CCOCC2)C(=O)O)CC1 [Compound 239, (2R)-2-[[4-[[4-chloro-2-(difluoromethoxy)phenyl]carbamoyl]-4-(5-isopropylpyrazol-1-yl)-1-piperidyl]methyl]-3-morpholino-propanoic acid]
54.8	CC(C)c1ccnn1C1(C(=O)Nc2ccc(Cl)cc2OC(F)F)CCN(CC(=O)O)CC1 [Compound 1, 2-[4-[[4-chloro-2-(difluoromethoxy)phenyl]carbamoyl]-4-(5-isopropylpyrazol-1-yl)-1-piperidyl]acetic acid]
19.1	CC(C)c1ccnn1C1(C(=O)Nc2ccc(Cl)cc2OC(F)F)CCN(CC2(C(=O)O)CCCCC2)CC1 [Compound 42, 1-[[4-[[4-chloro-2-(difluoromethoxy)phenyl]carbamoyl]-4-(5-isopropylpyrazol-1-yl)-1-piperidyl]methyl]cyclohexanecarboxylic acid]
71.5	CCOC(CN1CCC(C(=O)Nc2ccc(Cl)cc2OC(F)F)(n2nccc2C(C)C)CC1)C(=O)O (centres unmarked) [Compound 134, 3-[4-[[4-chloro-2-(difluoromethoxy)phenyl]carbamoyl]-4-(5-isopropylpyrazol-1-yl)-1-piperidyl]-2-ethoxy-propanoic acid]

SMILES	IC50 [nM]
CC(C)c1ccnn1C1(C(=O)Nc2ccc(Cl)cc2OC(F)F)CCN(C2CC(NC(=O)OC(C)(C)C)(C(=O)O)C2)CC1 (centres unmarked) [Compound 124, 1-(tert-butoxycarbonylamino)-3-[4-[[4-chloro-2-(difluoromethoxy)phenyl]carbamoyl]-4-(5-isopropylpyrazol-1-yl)-1-piperidyl] cyclobutanecarboxylic acid]	49.3
CC(C)c1ccnn1C1(C(=O)Nc2ccc(Cl)cc2OC(F)F)CCN(CC2(C(=O)O)CCN(C(=O)Oc3ccc(F)cc3)CC2)CC1 [Compound 10, 4-[[4-[[4-chloro-2-(difluoromethoxy)phenyl]carbamoyl]-4-(5-isopropylpyrazol-1-yl)-1-piperidyl]methyl]-1-(4-fluorophenoxy)carbonyl-piperidine-4-carboxylic acid]	7.53
